PubChem BioAssay AID248 (DTP/NCI, 2004)
“And” between values parts separate entries of the source, which are not always exact repeats. Identical values can stand only once. Toxic doses and inconclusive results are not listed. No stated cut-off is given here; in the data, active means T/C of 150% or more; inactive means T/C below 125%.

System: L1210 leukemia ip in BDF1 mice, survival T/C
Assay: NCI In Vivo Anticancer Drug Screen. Data for tumor model L1210 Leukemia (intraperitoneal) in B6D2F1 (BDF1) mice
Conditions: endpoint: mean survival time, higher = longer survival
Outline: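 Tumor cells were implanted, animals were treated, and survival was followed. The result divides the treated measurement by the vehicle-control measurement.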

[1] = dose: 100.0 mg/kg/injection, schedule: Q01DX001 (ip), vehicle: saline
[2] = dose: 200.0 mg/kg/injection, schedule: Q01DX001 (ip), vehicle: saline
[3] = dose: 200.0 mg/kg/injection, schedule: Q04DX003 (ip), vehicle: saline
[4] = dose: 400.0 mg/kg/injection, schedule: Q01DX001 (ip), vehicle: saline
[5] = dose: 400.0 mg/kg/injection, schedule: Q01DX009 (ip), vehicle: saline
[6] = dose: 25.0 mg/kg/injection, schedule: Q01DX009 (ip), vehicle: Klucel (hydroxypropylcellulose) (HPC)
[7] = dose: 50.0 mg/kg/injection, schedule: Q01DX009 (ip), vehicle: Klucel (hydroxypropylcellulose) (HPC)
[8] = dose: 100.0 mg/kg/injection, schedule: Q01DX009 (ip), vehicle: Klucel (hydroxypropylcellulose) (HPC)
[9] = dose: 50.0 mg/kg/injection, schedule: Q01DX001 (ip), vehicle: saline
[10] = dose: 100.0 mg/kg/injection, schedule: Q04DX003 (ip), vehicle: Klucel (hydroxypropylcellulose) (HPC)
[11] = dose: 200.0 mg/kg/injection, schedule: Q04DX003 (ip), vehicle: Klucel (hydroxypropylcellulose) (HPC)
[12] = dose: 400.0 mg/kg/injection, schedule: Q04DX003 (ip), vehicle: Klucel (hydroxypropylcellulose) (HPC)
[13] = dose: 200.0 mg/kg/injection, schedule: Q01DX009 (ip), vehicle: Klucel (hydroxypropylcellulose) (HPC)
[14] = dose: 400.0 mg/kg/injection, schedule: Q01DX009 (ip), vehicle: Klucel (hydroxypropylcellulose) (HPC)

Measured: T/C

O=[N+]([O-])c1ccc2c(N=Nc3c(O)ccc4ccccc34)c(O)cc(S(=O)(=O)O)c2c1
inactive: dose: 50.0 mg/kg/injection, schedule: Q04DX003 (ip), vehicle: saline 98 % of control | [1] 92 % of control | [2] 92 % of control | [3] 92 % of control

Nc1c(Cl)ncn2c(=O)n(Cc3ccccc3)nc12
inactive: dose: 100.0 mg/kg/injection, schedule: Q01DX001 (ip), vehicle: carboxymethylcellulose (CMC) 96 % of control | dose: 200.0 mg/kg/injection, schedule: Q01DX001 (ip), vehicle: carboxymethylcellulose (CMC) 105 % of control | dose: 400.0 mg/kg/injection, schedule: Q01DX001 (ip), vehicle: carboxymethylcellulose (CMC) 105 % of control

COC(=O)c1[nH]cnc1/N=N/N(C)CCO
inactive: dose: 88.0 mg/kg/injection, schedule: Q01DX001 (ip), vehicle: saline 95 % of control | [1] 104 % of control | dose: 133.0 mg/kg/injection, schedule: Q01DX001 (ip), vehicle: saline 97 % of control | [2] 101 % of control and 107 % of control | dose: 267.0 mg/kg/injection, schedule: Q01DX009 (ip), vehicle: saline 109 % of control | dose: 300.0 mg/kg/injection, schedule: Q01DX001 (ip), vehicle: saline 103 % of control | [4] 102 % of control | [5] 100 % of control | dose: 600.0 mg/kg/injection, schedule: Q01DX009 (ip), vehicle: saline 109 % of control | dose: 900.0 mg/kg/injection, schedule: Q01DX009 (ip), vehicle: saline 111 % of control
active: dose: 600.0 mg/kg/injection, schedule: Q01DX015 (ip), vehicle: saline 157 % of control

CCCCC(C=O)(CCN1CCCC1)c1cccc2ccccc12 (centres undefined)
inactive: dose: 25.0 mg/kg/injection, schedule: Q04DX002 (ip), vehicle: saline with Tween-80 88 % of control | dose: 50.0 mg/kg/injection, schedule: Q04DX002 (ip), vehicle: saline with Tween-80 100 % of control | dose: 100.0 mg/kg/injection, schedule: Q04DX002 (ip), vehicle: saline with Tween-80 103 % of control

CC12CCCC(=O)C1CC/C(=C\c1ccco1)C2=O (centres undefined)
inactive: dose: 100.0 mg/kg/injection, schedule: Q01DX009 (ip), vehicle: saline 109 % of control | dose: 100.0 mg/kg/injection, schedule: Q04DX003 (ip), vehicle: saline 102 % of control | dose: 200.0 mg/kg/injection, schedule: Q01DX009 (ip), vehicle: saline 98 % of control | [3] 104 % of control | [5] 114 % of control | dose: 400.0 mg/kg/injection, schedule: Q04DX003 (ip), vehicle: saline 104 % of control

CC(N)c1cccc2ccccc12 (centres undefined)
inactive: dose: 25.0 mg/kg/injection, schedule: Q04DX002 (ip), vehicle: saline 98 % of control | dose: 50.0 mg/kg/injection, schedule: Q04DX002 (ip), vehicle: saline 94 % of control | dose: 100.0 mg/kg/injection, schedule: Q04DX002 (ip), vehicle: saline 98 % of control

CN1CCC(O)(c2ccccc2)C(C(=O)c2ccccc2)C1 (centres undefined)
inactive: [1] 101 % of control | [2] 93 % of control

O=C(NCc1ccco1)c1cccc(F)c1
inactive: [6] 93 % of control | [7] 95 % of control | [8] 104 % of control and 109 % of control

CCOC(=O)c1ccc(NCC(=N)N)cc1
inactive: dose: 100.0 mg/kg/injection, schedule: Q01DX001 (ip), vehicle: saline sonified 103 % of control | dose: 200.0 mg/kg/injection, schedule: Q01DX001 (ip), vehicle: saline sonified 100 % of control

COc1ccc2c(c1)CC[C@@H]1[C@@H]2CC[C@]2(C)/C(=N\O)CC[C@@H]12
inactive: dose: 100.0 mg/kg/injection, schedule: Q01DX001 (sc), vehicle: steriod suspending solution 100 % of control | dose: 100.0 mg/kg/injection, schedule: Q04DX003 (ip), vehicle: steriod suspending solution 102 % of control | dose: 200.0 mg/kg/injection, schedule: Q01DX001 (sc), vehicle: steriod suspending solution 100 % of control | dose: 200.0 mg/kg/injection, schedule: Q04DX003 (ip), vehicle: steriod suspending solution 100 % of control | dose: 400.0 mg/kg/injection, schedule: Q01DX001 (sc), vehicle: steriod suspending solution 97 % of control | dose: 400.0 mg/kg/injection, schedule: Q04DX003 (ip), vehicle: steriod suspending solution 97 % of control

O=C(CCCC(=O)N/N=C/c1ccc(C(=O)O)cc1)N/N=C\c1ccc(C(=O)O)cc1
inactive: [9] 104 % of control | [1] 102 % of control | [2] 98 % of control | [4] 98 % of control

NC(=S)N/N=C/c1nc2ccccc2[nH]c1=O
inactive: dose: 26.0 mg/kg/injection, schedule: Q03HX032 (ip), vehicle: saline with Tween-80 90 % of control and 91 % of control | dose: 40.0 mg/kg/injection, schedule: Q03HX032 (ip), vehicle: saline with Tween-80 95 % of control and 87 % of control | dose: 60.0 mg/kg/injection, schedule: Q03HX032 (ip), vehicle: saline with Tween-80 88 % of control and 90 % of control | dose: 90.0 mg/kg/injection, schedule: Q03HX032 (ip), vehicle: saline with Tween-80 94 % of control and 89 % of control | dose: 135.0 mg/kg/injection, schedule: Q03HX032 (ip), vehicle: saline with Tween-80 89 % of control

Cc1nc(N)sc1S(=O)(=O)F
inactive: [1] 96 % of control | dose: 100.0 mg/kg/injection, schedule: Q04DX003 (ip), vehicle: saline with Tween-80 89 % of control | [2] 97 % of control | dose: 200.0 mg/kg/injection, schedule: Q04DX003 (ip), vehicle: saline with Tween-80 97 % of control | [4] 102 % of control | dose: 400.0 mg/kg/injection, schedule: Q04DX003 (ip), vehicle: saline with Tween-80 97 % of control

COC1OC2COC(c3ccccc3)OC2C2C1N2C#N (centres undefined)
inactive: dose: 25.0 mg/kg/injection, schedule: Q01DX001 (ip), vehicle: Klucel (hydroxypropylcellulose) (HPC) 100 % of control | dose: 50.0 mg/kg/injection, schedule: Q01DX001 (ip), vehicle: Klucel (hydroxypropylcellulose) (HPC) 93 % of control | dose: 100.0 mg/kg/injection, schedule: Q01DX001 (ip), vehicle: Klucel (hydroxypropylcellulose) (HPC) 100 % of control

Nc1ccc(CCc2nc(N)nc(N)c2-c2ccc(Cl)cc2)cc1
inactive: [10] 106 % of control | [11] 104 % of control | [12] 101 % of control

O=[N+]([O-])c1cc([N+](=O)[O-])c(/C=C/c2ccccc2)c([N+](=O)[O-])c1/C=C/c1ccccc1
inactive: [8] 104 % of control | [10] 97 % of control | [13] 98 % of control | [11] 101 % of control | [14] 98 % of control | [12] 97 % of control

CCCCCCC(=O)CC(C)C
inactive: [8] 101 % of control | [10] 97 % of control | [13] 103 % of control | [11] 102 % of control | [14] 109 % of control | [12] 107 % of control

CN1CCN(CCNc2ccc(CO)c3sc4ccccc4c(=O)c23)CC1
inactive: dose: 31.25 mg/kg/injection, schedule: Q01DX009 (ip), vehicle: Klucel (hydroxypropylcellulose) (HPC) 100 % of control | dose: 62.5 mg/kg/injection, schedule: Q01DX009 (ip), vehicle: Klucel (hydroxypropylcellulose) (HPC) 97 % of control | dose: 125.0 mg/kg/injection, schedule: Q01DX009 (ip), vehicle: Klucel (hydroxypropylcellulose) (HPC) 105 % of control

CCCCC(/C=C/c1ccc2ccccc2n1)CC (centres undefined)
inactive: [9] 103 % of control | [1] 113 % of control

CNc1ccc(Cl)cc1-c1nc2ccccc2[nH]1
inactive: [7] 109 % of control | [8] 102 % of control | [13] 102 % of control

CC(=O)Nc1ccc(NC(=O)Nc2ccc(F)c(Cl)c2)cc1
inactive: [10] 92 % of control | [11] 97 % of control | [12] 95 % of control

CC12CCC(C(=N/O)/C1=N\O)C2(C)C (centres undefined)
inactive: dose: 20.0 mg/kg/injection, schedule: Q04DX003 (ip), vehicle: Klucel (hydroxypropylcellulose) (HPC) 106 % of control | [6] 107 % of control | dose: 40.0 mg/kg/injection, schedule: Q04DX003 (ip), vehicle: Klucel (hydroxypropylcellulose) (HPC) 103 % of control | [7] 107 % of control | dose: 80.0 mg/kg/injection, schedule: Q04DX003 (ip), vehicle: Klucel (hydroxypropylcellulose) (HPC) 105 % of control | [10] 96 % of control

CN(C)C(=S)SCc1c(Cl)c(Cl)c(Cl)c(Cl)c1Cl
inactive: [10] 105 % of control | [11] 100 % of control | [12] 94 % of control

CN(Cc1ccccc1)C(=O)Nc1cccc(C(F)(F)F)c1
inactive: dose: 100.0 mg/kg/injection, schedule: Q01DX009 (ip), vehicle: saline with Tween-80 107 % of control | dose: 200.0 mg/kg/injection, schedule: Q01DX009 (ip), vehicle: saline with Tween-80 98 % of control | dose: 400.0 mg/kg/injection, schedule: Q01DX009 (ip), vehicle: saline with Tween-80 96 % of control
